Converted amounts (≈) assume the structure as drawn.
Columns and labels:
Type in all cases: cell-based
[1] = system: E. coli (wild-type) BW25113; assay: Broth microdilution MIC, E. coli wild-type; conditions: Escherichia coli, iron-depleted CAMHB, OD600 ≤0.15, read-out: MIC (μg/mL) Gram-negative EC
Description: (§1) The test compounds including vancomycin hydrochloride were supplied as a 6.4 mg/mL solution in 100% dimethyl sulfoxide (DMSO) aliquoted into individual wells of a 96-well plate (50 μL per well). […] Standardized inocula were added to the MIC test plates, which were incubated for the prescribed times at 35° C. The N. gonorrhoeae strain was incubated in an atmosphere containing 5% CO2.
(§2) The final optical density of each well at 600 nm was measured using a Tecan Spark plate reader. The compound concentration versus OD600 data were then curve fit using custom software. An MIC value was defined as the lowest compound concentration that led to an OD600 value≤0.15 for the E. coli, K. pneumoniae, P. aeruginosa, A. baumannii, or S. aureus strains. For the N. gonorrhoeae strain, an OD600 value≤0.19 was used as a cutoff to define an MIC value; this higher cut-off value was required because the N. gonorrhoeae MIC plates were covered with plastic seals that increased the background OD600 value.
(§3) JMI Laboratories followed current CLSI quality assurance practices when performing the susceptibility tests. MIC values were validated by concurrently testing the CLSI-recommended ATCC QC reference strains S. aureus ATCC 29213 and K. pneumoniae ATCC 700603. The inoculum density during susceptibility testing was monitored by bacterial colony counts. Where applicable, QC ranges for tested reference strains were those ranges approved or published by CLSI for testing in CAMHB. […] Importantly, the CLSI reference method for testing N. gonorrhoeae is the agar dilution MIC method, which was not used here. Thus, CLSI MIC QC ranges for N. gonorrhoeae could not be applied to the antimicrobials studied here.
(§4) Abbreviations: EC, E. coli (wild-type) BW25113; EC efflux^−, E. coli (tolC) JW5503-1; KPN, K. pneumoniae ATCC 700603; PSA, P. aeruginosa PAO1; PSA efflux^−, P. aeruginosa (multi-pump-gene mutant) PAM1626; ACB, A. baumannii JMI #1186154; GC, N. gonorrhoeae WHO-Z; SA, S. aureus ATCC 29213. Broth microdilution MIC values were measured in iron-depleted CAMHB for all strains except for GC, which was tested in fastidious broth.

[2] = system: E. coli (tolC) JW5503-1; assay: Broth microdilution MIC, E. coli efflux-deficient (tolC); conditions: Escherichia coli, read-out: MIC (μg/mL) Gram-negative EC Efflux
Description: as §1, §2, §3, §4

[3] = system: K. pneumoniae ATCC 700603; assay: Broth microdilution MIC, K. pneumoniae; conditions: Klebsiella pneumoniae, ATCC700603, read-out: MIC (μg/mL) Gram-negative KPN
Description: as §1, §2, §3, §4

[4] = system: P. aeruginosa PAO1; assay: Broth microdilution MIC, P. aeruginosa; conditions: Pseudomonas aeruginosa, iron-depleted CAMHB, OD600 ≤0.15, read-out: MIC (μg/mL) Gram-negative PSA
Description: as §1, §2, §3, §4

[5] = system: P. aeruginosa (multi-pump-gene mutant) PAM1626; assay: Broth microdilution MIC, P. aeruginosa efflux-deficient; conditions: Pseudomonas aeruginosa, read-out: MIC (μg/mL) Gram-negative PSA Efflux
Description: as §1, §2, §3, §4

[6] = system: A. baumannii JMI #1186154; assay: Broth microdilution MIC, A. baumannii; conditions: Acinetobacter baumannii, iron-depleted CAMHB, OD600 ≤0.15, read-out: MIC (μg/mL) Gram-negative ACB
Description: as §1, §2, §3, §4

[7] = system: N. gonorrhoeae WHO-Z; assay: Broth microdilution MIC, N. gonorrhoeae; conditions: Neisseria gonorrhoeae, read-out: MIC (μg/mL) Gram-negative GC
Description: as §1, §2, §3, §4

[8] = system: S. aureus ATCC 29213; assay: Broth microdilution MIC, S. aureus; conditions: Staphylococcus aureus, ATCC29213, iron-depleted CAMHB, OD600 ≤0.15, read-out: MIC (μg/mL) Gram positive SA
Description: as §1, §2, §3, §4

SMILES: CNC(CC(C)C)C(=O)NC1C(=O)NC(CC(N)=O)C(=O)NC2C(=O)NC3C(=O)NC(C(=O)N[C@H](C(=O)O)c4cc(O)c(CNCc5cn(CCCNC(=O)c6ccc(O)c(O)c6Cl)nn5)c(O)c4-c4cc3ccc4O)C(O)c3ccc(c(Cl)c3)Oc3cc2cc(c3OC2OC(CO)C(O)C(O)C2OC2CC(C)(N)C(O)C(C)O2)Oc2ccc(cc2Cl)C1O (stereo partly shown) [Compound 27]
- MIC [1]: 16 µg/mL (≈ 8.95 µM)
- MIC [2]: 64 µg/mL (≈ 35.8 µM)
- MIC [3]: > 64 µg/mL
- MIC [4]: > 64 µg/mL
- MIC [5]: > 64 µg/mL
- MIC [6]: 16 µg/mL (≈ 8.95 µM)
- MIC [7]: > 64 µg/mL
- MIC [8]: 8 µg/mL (≈ 4.48 µM)

SMILES: CNC(CC(C)C)C(=O)NC1C(=O)NC(CC(N)=O)C(=O)NC2C(=O)NC3C(=O)NC(C(=O)N[C@H](C(=O)O)c4cc(O)cc(O)c4-c4cc3ccc4O)C(O)c3ccc(c(Cl)c3)Oc3cc2cc(c3OC2OC(CO)C(O)C(O)C2OC2CC(C)(NCCNC(=O)c3ccc(O)c(O)c3Cl)C(O)C(C)O2)Oc2ccc(cc2Cl)C1O (stereo partly shown) [Compound 28]
- MIC [1]: > 64 µg/mL
- MIC [2]: > 64 µg/mL
- MIC [3]: > 64 µg/mL
- MIC [4]: > 64 µg/mL
- MIC [5]: > 64 µg/mL
- MIC [6]: 32 µg/mL (≈ 19.2 µM)
- MIC [7]: > 64 µg/mL
- MIC [8]: 4 µg/mL (≈ 2.41 µM)

SMILES: CC(C)C[C@H](C(=O)N[C@H]1C(=O)N[C@@H](CC(N)=O)C(=O)N[C@H]2C(=O)N[C@H]3C(=O)N[C@H](C(=O)N[C@H](C(=O)O)c4cc(O)cc(O)c4-c4cc3ccc4O)[C@H](O)c3ccc(c(Cl)c3)Oc3cc2cc(c3O[C@@H]2O[C@H](CO)C(O)C(O)[C@H]2O[C@H]2CC(C)(N)[C@H](O)[C@H](C)O2)Oc2ccc(cc2Cl)[C@H]1O)N(C)CCNC(=O)c1ccc(O)c(O)c1Cl (stereo partly shown) [Compound 30]
- MIC [1]: 64 µg/mL (≈ 38.5 µM)
- MIC [2]: > 64 µg/mL
- MIC [3]: > 64 µg/mL
- MIC [4]: > 64 µg/mL
- MIC [5]: > 64 µg/mL
- MIC [6]: 32 µg/mL (≈ 19.2 µM)
- MIC [7]: > 64 µg/mL
- MIC [8]: 4 µg/mL (≈ 2.41 µM)

SMILES: CNC(CC(C)C)C(=O)NC1C(=O)NC(CC(N)=O)C(=O)NC2C(=O)NC3C(=O)NC(C(=O)N[C@H](C(=O)O)c4cc(O)cc(O)c4-c4cc3ccc4O)C(O)c3ccc(c(Cl)c3)Oc3cc2cc(c3OC2OC(CO)C(O)C(O)C2OC2CC(C)(NCCCc3cn(CCCNC(=O)c4ccc(O)c(O)c4Cl)nn3)C(O)C(C)O2)Oc2ccc(cc2Cl)C1O (stereo partly shown) [Compound 31]
- MIC [1]: > 64 µg/mL
- MIC [2]: 32 µg/mL (≈ 17.9 µM)
- MIC [3]: > 64 µg/mL
- MIC [4]: > 64 µg/mL
- MIC [5]: > 64 µg/mL
- MIC [6]: 64 µg/mL (≈ 35.8 µM)
- MIC [7]: > 64 µg/mL
- MIC [8]: 8 µg/mL (≈ 4.48 µM)

SMILES: CC(C)CC(C(=O)NC1C(=O)NC(CC(N)=O)C(=O)NC2C(=O)NC3C(=O)NC(C(=O)N[C@H](C(=O)O)c4cc(O)cc(O)c4-c4cc3ccc4O)C(O)c3ccc(c(Cl)c3)Oc3cc2cc(c3OC2OC(CO)C(O)C(O)C2OC2CC(C)(N)C(O)C(C)O2)Oc2ccc(cc2Cl)C1O)N(C)CCCc1cn(CCCNC(=O)c2ccc(O)c(O)c2Cl)nn1 (stereo partly shown) [Compound 32]
- MIC [1]: > 64 µg/mL
- MIC [2]: > 64 µg/mL
- MIC [3]: > 64 µg/mL
- MIC [4]: > 64 µg/mL
- MIC [5]: > 64 µg/mL
- MIC [6]: 32 µg/mL (≈ 17.9 µM)
- MIC [7]: > 64 µg/mL
- MIC [8]: 32 µg/mL (≈ 17.9 µM)
